{
  "source": "paper PMC11984407",
  "about": "“A natural small molecule isoginkgetin alleviates hypercholesterolemia and atherosclerosis by targeting ACLY” (Theranostics, 2025)",
  "target": "T1, recombinant ACLY protein (Homo sapiens, UniProt P53396)",
  "T1 sequence (P53396 1-1101)": "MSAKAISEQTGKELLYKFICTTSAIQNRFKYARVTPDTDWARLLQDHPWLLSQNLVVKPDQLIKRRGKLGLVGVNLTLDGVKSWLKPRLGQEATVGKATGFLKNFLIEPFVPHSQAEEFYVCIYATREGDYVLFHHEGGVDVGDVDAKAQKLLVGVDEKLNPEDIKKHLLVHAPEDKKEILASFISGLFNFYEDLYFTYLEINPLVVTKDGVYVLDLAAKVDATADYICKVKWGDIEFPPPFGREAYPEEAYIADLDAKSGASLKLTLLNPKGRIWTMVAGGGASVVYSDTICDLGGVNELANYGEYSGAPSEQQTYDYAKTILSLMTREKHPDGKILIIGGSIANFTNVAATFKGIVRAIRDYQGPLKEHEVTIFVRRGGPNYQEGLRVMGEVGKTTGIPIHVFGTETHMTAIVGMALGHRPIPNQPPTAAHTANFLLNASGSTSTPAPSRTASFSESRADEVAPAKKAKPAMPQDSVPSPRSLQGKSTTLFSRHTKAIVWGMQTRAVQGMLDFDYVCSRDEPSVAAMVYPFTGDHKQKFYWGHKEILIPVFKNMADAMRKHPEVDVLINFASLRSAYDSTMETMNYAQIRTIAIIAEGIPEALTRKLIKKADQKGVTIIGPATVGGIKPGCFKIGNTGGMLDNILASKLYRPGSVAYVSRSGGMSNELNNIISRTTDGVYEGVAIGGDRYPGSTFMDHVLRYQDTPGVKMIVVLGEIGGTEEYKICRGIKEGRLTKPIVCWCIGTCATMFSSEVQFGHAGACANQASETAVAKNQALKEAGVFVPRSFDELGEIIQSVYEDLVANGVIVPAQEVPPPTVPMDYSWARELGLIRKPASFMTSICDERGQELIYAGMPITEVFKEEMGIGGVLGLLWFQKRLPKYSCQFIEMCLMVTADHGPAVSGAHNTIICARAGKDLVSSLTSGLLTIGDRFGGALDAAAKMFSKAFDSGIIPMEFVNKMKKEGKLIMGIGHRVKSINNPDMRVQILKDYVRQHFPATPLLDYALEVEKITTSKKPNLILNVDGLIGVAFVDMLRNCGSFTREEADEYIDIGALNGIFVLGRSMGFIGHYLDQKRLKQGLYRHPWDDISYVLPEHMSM",
  "assay": "Surface plasmon resonance (OpenSPR)",
  "format": "binding",
  "conditions": "SPR, 1:1 Langmuir model; read-out: equilibrium dissociation constant (KD)",
  "method": "The interaction between isoginkgetin and ACLY was examined using an OpenSPR instrument (Nicaya, Canada). The recombinant ACLY protein was immobilized on a carboxyl sensor chip (SEN-AU-100-3-COOH; Nicaya, Canada) via a standard amine coupling method. Isoginkgetin was injected into the running buffer at various concentrations (ranging from 0.5 to 8 μM) at a flow rate of 20 μL/min. The interaction parameter KD was determined using TraceDrawer evaluation software based on the 1:1 Langmuir binding model.",
  "data": [
    {"smiles": "COc1ccc(-c2cc(=O)c3c(O)cc(O)c(-c4cc(-c5cc(=O)c6c(O)cc(O)cc6o5)ccc4OC)c3o2)cc1", "note": "[ISOGK, Isoginkgetin]", "values": [
      {"measurement": "Kd", "value": 5.1, "unit": "µM"}
    ]}
  ]
}
